System: human B cells
Details: 500 μM vs. 0 μM hydrogen peroxide

DNA size histograms of treated vs. untreated cells (FIG. 8A) (triplicate samples): clear shift to smaller fragment sizes
Compound: OO [hydrogen peroxide]
average size of the DNA and label incorporation density (FIG. 8B) (average molecule length and labels/100 kb): clear oxidative damage detection in the form of DSBs and SSBs
